# Key:
# human Jurkat cells = assay: Autophagic flux (LC3-II, flow cytometry) in Jurkat cells; assay type: cell-based; conditions: thymol 1.95 to 250 μM, LC3-II median fluorescence intensity, FIG. 1
# Description: The human lymphocytic T cell line Jurkat (clone E6.1, ATCC TIB-152) has been used to measure autophagic flux in vitro. Cells were grown in RPMI medium with standard conditions (5% CO2, 37° C.) in a humidified atmosphere. For the experiment, cells were washed, counted and incubated at 1*105/well in duplicate in a 96-flat bottom well plate. Experimental conditions included negative controls (0.5% DMSO), rapamycin treatment as positive control (1 uM) and Earle's Balanced Salt Solution (EBSS) as a starvation medium. Cells received Thymol (in RPMI) at different concentrations ranging from 1.95 μM to 250 μM. In parallel, the same experimental conditions were prepared for the incubation with solution A, from the Flow Cellect Autophagy Kit from Merck, now Guava Autophagy LC3 antibody-based kit. The treatment with compound A blocks the lysosomal degradation of LC3 vesicles and is used to measure autophagic flux. Cells were incubated with thymol at 37° for 1.30 h. Solution A was added for additional 30 minutes. Cells were then transferred in a 96 V bottom plate for the LC3 antibody detection using the Guava Autophagy LC3 antibody-based kit, according the manufacturer's instructions. […] Offline analysis was performed with FCS Express Software and results were expressed as the median fluorescence intensity in the FITC channel (related to the amount of LC3-II present in the cells.)
# zebrafish larvae = assay: Autophagy reporter zebrafish line (LC3-ZsGreen punctae in skeletal muscle); assay type: in vivo; conditions: 16 hours of treatment, LC3 punctae with and without ammonium chloride, FIG. 2
# Description: After 16 hours of treatment larvae were anesthetized with 0.016% tricaine and imaged with ImageXpress confocal system at 20× magnification (Molecular Devices). Z stack images were captured for each larva and maximal projection images were produced. Ammonium chloride was added for additional 4 hours to block lysosomal degradation. Images were acquired again as before. In order to quantify autophagic flux, number of LC3 punctae have been calculated in presence and in absence of ammonium chloride with MetaXpress software (Molecular Devices) and normalized by zebrafish area.
# [1] = tested on: liver steatosis in obese mice; assay: Chronic treatment on a model of obesity (high fat diet), liver Oil Red O staining; assay type: in vivo; conditions: thymol 20 mg/kg/day for 8 weeks, FIG. 4
# Description: Mice were fed with high fat diet (Research Diets D12492: 60% fat, 20% protein, 20% carbohydrates) for 8 weeks. Mice were sacrificed by isofluorane inhalation followed by exsanguination. Livers were collected, embedded in OCT and frozen in isopentane. In order to visualize lipid droplets, liver sections of 10 μm were cut and stained by Oil Red O. Lipids size was calculated using imageJ software
structure (smiles),measurement,setting,value
Cc1ccc(C(C)C)c(O)c1 [thymol],concentration from which thymol induced autophagy in a dose dependent manner,human Jurkat cells,≥ 125 µM
same,concentration from which thymol induced autophagy in a dose dependent manner,zebrafish larvae,≥ 50 µM
same,liver steatosis,[1],reduction of liver steatosis

# Reference: patent US20220226258A1, “COMPOSITIONS AND METHODS USING THYMOL AND/OR CARVACROL FOR INDUCTION OF AUTOPHAGY” (SOCIETE DES PRODUITS NESTLE S.A., priority 2019, published 2022)
